# Experimental data taken from the supplement of paper PMC10307832.
# Compound: Cn1cc(-c2cnn3c(N)c(Br)c([C@@H]4CCCNC4)nc23)cn1 + CS(=O)(=O)N1CCN(Cc2cc3nc(-c4cccc5[nH]ncc45)nc(N4CCOCC4)c3s2)CC1 [Pictilisib] (partner 1 µM)
# Assay: relative viability (nuclei count vs DMSO), 5 days (fraction); higher = more cells survive
# In short: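 Lung cancer cell lines in 1536-well plates were dosed by pin tool the day after seeding, either with one drug alone or with a fixed anchor-drug dose plus five library-drug doses (not always all listed) in √10 steps. After 5 days, cells were fixed and their nuclei stained in one step (final 0.05% Triton X-100, 1% formaldehyde, 1 ug/ml Hoechst), then counted on 4× images. Relative viability is the nuclei count in treated wells divided by that in vehicle wells. Values are medians of duplicate plates.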
Cell Line,relative viability (first compound 0.05 µM),relative viability (first compound 0.1581 µM),relative viability (first compound 0.5 µM),relative viability (first compound 1.581 µM),relative viability (first compound 5 µM)
201T,0.644,0.621,0.704,0.613,0.573
A549,0.503,0.606,0.434,0.284,0.307
A-427,0.675,0.661,0.819,0.643,0.509
ABC-1,0.763,0.666,0.721,0.54,0.341
BEN,0.628,0.575,0.498,0.496,0.417
CAL-12T,0.416,0.45,0.525,0.389,0.244
COR-L23,0.952,1.16,0.597,0.447,0.257
COR-L 105,0.459,0.4,0.376,0.376,0.385
Calu-6,0.935,0.605,0.419,0.212,0.194
ChaGo-K-1,0.708,0.672,0.65,0.617,0.501
EBC-1,0.466,0.36,0.37,0.265,0.221
EKVX,0.507,0.506,0.507,0.469,0.396
EMC-BAC-2,0.545,0.561,0.531,0.475,0.509
EPLC-272H,0.289,0.291,0.277,0.211,0.21
H3255,0.489,0.488,0.427,0.425,0.327
HARA,0.463,0.345,0.372,0.438,0.207
HCC-15,0.798,0.768,0.757,0.634,0.764
HCC-44,0.566,0.577,0.63,0.465,0.427
HCC-78,0.245,0.246,0.11,0.155,0.154
HCC-366,0.278,0.17,0.156,0.205,0.263
HCC-827,0.999,1.13,0.974,1,0.928
HOP-62,0.896,0.699,0.586,0.444,0.455
IA-LM,0.357,0.372,0.33,0.206,0.196
LC-2-ad,0.546,0.466,0.335,0.349,0.272
LCLC-97TM1,0.16,0.149,0.26,0.152,0.143
LCLC-103H,0.565,0.555,0.522,0.489,0.466

Cell Line,relative viability (first compound 0.05 µM),relative viability (first compound 0.1581 µM),relative viability (first compound 0.5 µM),relative viability (first compound 1.581 µM),relative viability (first compound 5 µM)
LK-2,0.597,0.508,0.574,0.444,0.306
LOU-NH91,0.518,0.515,0.527,0.535,0.511
LU99A,0.308,0.296,0.29,0.277,0.225
LXF-289,0.827,0.907,0.896,0.712,0.825
NCI-H23,0.576,0.506,0.395,0.313,0.198
NCI-H322M,0.542,0.5,0.421,0.475,0.377
NCI-H358,0.314,0.346,0.309,0.352,0.304
NCI-H441,0.669,0.56,0.478,0.527,0.46
NCI-H460,0.363,0.394,0.357,0.314,0.125
NCI-H520,0.266,0.318,0.283,0.208,0.267
NCI-H596,0.386,0.401,0.427,0.362,0.413
NCI-H647,0.485,0.409,0.368,0.291,0.341
NCI-H650,1.06,0.882,0.804,0.749,0.602
NCI-H661,0.321,0.432,0.441,0.291,0.357
NCI-H727,0.411,0.354,0.604,0.276,0.22
NCI-H838,0.365,0.501,0.416,0.264,0.488
NCI-H1299,0.876,0.562,0.462,0.175,0.223
NCI-H1355,0.402,0.474,0.467,0.408,0.342
NCI-H1395,0.575,0.671,0.562,0.51,0.585
NCI-H1437,0.438,0.411,0.418,0.292,0.306
NCI-H1563,0.581,0.63,0.658,0.585,0.595
NCI-H1650,0.66,0.654,0.681,0.479,0.24
NCI-H1651,0.662,0.613,0.607,0.283,0.312
NCI-H1666,0.657,0.429,0.338,0.464,0.413
NCI-H1703,0.237,0.183,0.178,0.156,0.155
NCI-H1734,0.506,0.46,0.475,0.382,0.358

Cell Line,relative viability (first compound 0.05 µM),relative viability (first compound 0.1581 µM),relative viability (first compound 0.5 µM),relative viability (first compound 1.581 µM),relative viability (first compound 5 µM)
NCI-H1755,0.472,0.411,0.452,0.292,0.334
NCI-H1792,0.318,0.288,0.24,0.241,0.164
NCI-H1793,0.306,0.411,0.308,0.21,0.191
NCI-H1915,0.933,0.942,0.948,0.896,0.9
NCI-H1944,0.341,0.358,0.346,0.32,0.302
NCI-H1975,0.308,0.264,0.308,0.222,0.248
NCI-H1993,0.816,0.789,–,0.819,0.686
NCI-H2009,0.712,0.873,0.714,0.517,0.552
NCI-H2023,0.268,0.226,0.194,0.143,0.11
NCI-H2085,0.508,0.441,0.57,0.403,0.469
NCI-H2087,0.821,1,0.95,0.852,0.803
NCI-H2126,0.462,0.519,0.512,0.52,0.524
NCI-H2170,0.281,0.299,0.262,0.274,0.295
NCI-H2228,0.258,0.286,0.297,0.355,0.351
NCI-H2347,0.77,0.63,0.759,0.264,0.57
NCI-H2405,0.466,0.37,0.396,0.327,0.314
NCI-H3122,0.635,0.647,0.604,0.526,0.606
PC-3 [JPC-3],0.692,0.746,0.744,0.667,0.747
PC-14,0.73,0.685,0.558,0.504,0.248
RERF-LC-KJ,0.593,0.53,0.384,0.359,0.346
SK-LU-1,0.569,0.424,0.458,0.365,0.278
SK-MES-1,0.333,0.395,0.336,0.288,0.216
SW 1573,0.48,0.572,0.502,0.461,0.499
UMC-11,0.926,0.782,0.709,0.397,0.431
